Test results published in patent US20210393636A1, “TREATMENT OF CNS AND DEVELOPMENTAL DISORDERS USING HIGH DOSE 5-FORMYL-(6S)-TETRAHYDROFOLATE” (priority 2019, published 2021).

Key:
in vivo = conditions: rat, in vivo, po, 4 mg/kg
Experimental: For this study, 4 mg/kg folate was administered as a single dose to 250-300 g male Wistar rats. […] For each form of folate 4 time points of 30 min, 1 h, 2 h and 4 h were evaluated. For each time point 2 rats were used. The folate form dissolved in 0.5 ml buffered saline was administered orally using a blunt needle attached to a 1 ml syringe. The rats were euthanized by CO2 inhalation.
Blood was drawn cardiac puncture, allowed to clot for 30 min, serum separated, diluted in equal volume of 4% ascorbate pH 7.2 and kept frozen at −20 C. Folate forms in the serum was determined by HPLC and the peaks were quantified by comparing to known standards as described below.
Folate standards (5-MTHF, FA, THF and Formyl-THF) and 13C-labeled stable isotope internal standards (13C5-5-MTHF, 13C5-FA and 13C-Formyl-THF) were obtained from Schircks Laboratories (Switzerland). Formic acid, ascorbic acid and dithiothreitol (DTT) were obtained from Fluka and Optima LC-MS grade methanol from Fisher Scientific. Stock standards for each folate metabolite and internal standards were prepared as 1 mmol/L solutions in water containing 2 mg/mL ascorbic acid and stored at −80° C. Microtiter plates used for were purchased from NUNC.
Liquid chromatography electrospray ionization mass spectrometry (LC-ESI-MS/MS) analysis of plasma 5-MTHF, FA, THF, Formyl-THF was performed on a Sciex 5500QTRAP mass spectrometer (Foster City, Calif., USA) coupled with a Shimadzu ultra-high pressure Nexera chromatograph system (Kyoto, Japan). The MS/MS experiments were performed under positive electrospray ionization (+ESI) with multiple-reaction monitoring (MRM) using a Turbolon Spray electrospray source operating at a voltage of 5.5 kV and desolvation temperature of 500° C. The calibration curve was prepared in water containing 2 mg/mL ascorbic acid over a range of 12.5-400 nmol/L for each folate analyte.
Sample preparation involved combining 50 µl of blank, standard, control or sample with 10μ1 62.5 mM dithiothreitol, 20 mg/ml ascorbic acid and 2.5 μM 13C5-5-MTHF, 13C5-FA, 13C-Formyl-THF in 1.5 mL Eppendorf tubes, mixed by vortex and incubated for 10 minutes at room temperature in the dark. Next, samples were deproteinized with 5 volumes of methanol containing 2 mg/ml of ascorbic acid and vortexed and centrifuged at 14800 rpm for 10 minutes. Supernatant was loaded in a 96-well microtiter plate for analysis. The samples were analyzed following injection of 10 μL of extract on a Synergi Hydro 4μ 150×3 mm with a 4×2 mm SecurityGuard column (Phenomenex, Calif., USA) maintained at 40° C. (Phenomenex) and eluted in a gradient with buffer A (100% water with 0.1% formic acid) and buffer B (100% Methanol with 0.1% formic acid). The flow rate was 0.5 mL/min, with a gradient over a total run time of 6 min: 0.0-2.0 min, 0-100% B; 2.5 min, 100% B; 2.6-6.0 min, 0% B.
Total analytical analysis, including column re-equilibration, was 6 minutes. Eluent flow from the column was diverted to waste at the beginning and end of each run and was only directed to the source for the period from 1.5-3.5 minutes. The LC-MS/MS data was acquired and processed using Analyst 1.5.2 software (Sciex).
Values reported include both D- and L-forms.

[1] = Tissue distribution of folates 24 h after oral administration of folate forms (Example 2); assay type: in vivo, rats; conditions: non-pregnant rats without folate receptor antibody
Experimental: This study evaluated the difference in folate absorption in non-pregnant rats, pregnant rats, pregnant rats injected with a control antibody, and pregnant rats injected with antibody to the folate receptor alpha. Eight (8) rats were assigned to each group for a total of thirty-two (32) rats. Two rats within each group were administered a single oral dose of PGA, 5-methyl-(6S)-THF, folinic acid or 5-formyl-(6S)-THF as a liquid solution and sacrificed at 24-hours to evaluate folate absorption patterns. The total amount of each form of folate administered to each rat was 4 mg/kg.
Additional analyses were performed in various tissues of the pregnant and non-pregnant rats. For tissues other than serum, each tissue was collected, weighed and stored at −20 C. For the folate assay each tissue was suspended in 3 volumes of phosphate buffer containing 2% ascorbic acid pH 7.4 and homogenized using a polytron probe. An aliquot of this homogenate was diluted 10 fold in PO4 buffer PH 5.5 containing 0.2% ascorbic acid, in a glass tube, sealed and placed in a boiling water bath for 10 min. The tube was cooled to room temperature, precipitate removed by centrifugation and the clear supernatant assayed for folate. Brain concentrations were derived from cortex and cerebellum.

[2] = Tissue distribution of folates 24 h after oral administration of folate forms to rat pups, with and without FR Ab (Example 3); assay type: in vivo; conditions: antibody-treated pups vs pups without antibody
Experimental: To determine tissue distribution of orally administered folate forms in young rat pups and study the effect of folate receptor antibodies on this distribution. PND 21 rat pups weighing about 50 g were administered folate forms orally at a dose of 4 mg/kg. Animals were euthanized after 24 h and tissues collected for analyzing total methylfolate in each tissue to provide a measure of normal distribution.

[3] = 25 mg liquid elixir, oral; cited from earlier work
[4] = parenteral 5 mg twice weekly or oral 0.5-20 mg/kg/day; cited from earlier work

concentration at 0.5 h (in vivo; male, Wistar): 0.0801 µg/mL
concentration at 1 h (in vivo; male, Wistar): 0.0559 µg/mL
concentration at 2 h (in vivo; male, Wistar): 0.0275 µg/mL
concentration at 4 h (in vivo; male, Wistar): 0.0217 µg/mL
5-MTHF (in vivo; male, Wistar, 0.5 h): 109.7 ng/mL
THF (in vivo; male, Wistar, 0.5 h): 5.5 ng/mL
Total Uptake (in vivo; male, Wistar, 0.5 h): 195.3 ng/mL
5-MTHF (in vivo; male, Wistar, 1 h): 115.7 ng/mL
THF (in vivo; male, Wistar, 1 h): 5.9 ng/mL
Total Uptake (in vivo; male, Wistar, 1 h): 177.4 ng/mL
5-MTHF (in vivo; male, Wistar, 2 h): 103.3 ng/mL
THF (in vivo; male, Wistar, 2 h): 5.1 ng/mL
Total Uptake (in vivo; male, Wistar, 2 h): 135.9 ng/mL
5-MTHF (in vivo; male, Wistar, 4 h): 120.7 ng/mL
THF (in vivo; male, Wistar, 4 h): 7.2 ng/mL
Total Uptake (in vivo; male, Wistar, 4 h): 149.6 ng/mL
THF concentration relative to an equal dose of 5-formyl-6S-THF (in vivo): less than one fifth
tissue uptake of the unnatural D-isomer in ovary, brain, cerebellum and cortex [1]: significant
Structure (SMILES): Nc1nc2c(c(=O)[nH]1)N(C=O)C(CNc1ccc(C(=O)N[C@@H](CCC(=O)O)C(=O)O)cc1)CN2 (some centres unmarked) [Folinic acid, 5-formyl-tetrahydrofolate]
change of folates in the brain on antibody administration [2]: an increase in folates in the brain is observed
AUC0-24h, 5-Formyl-THF (Strep. faecalis activity) [3]: 0.135 ± 0.08 µg·h/mL
AUC0-24h, 5-Methyl-THF (arithmetic difference) [3]: 1.929 ± 0.542 µg·h/mL
AUC0-24h, Total folates (l-casei activity) [3]: 2.063 ± 0.587 µg·h/mL
AUC0-inf, 5-Formyl-THF (Strep. faecalis activity) [3]: 0.14 ± 0.081 µg·h/mL
AUC0-inf, 5-Methyl-THF (arithmetic difference) [3]: 2.012 ± 0.567 µg·h/mL
AUC0-inf, Total folates (l-casei activity) [3]: 2.149 ± 0.612 µg·h/mL
Cmax, 5-Formyl-THF (Strep. faecalis activity) [3]: 0.051 ± 0.05 µg/mL
Cmax, 5-Methyl-THF (arithmetic difference) [3]: 0.367 ± 0.087 µg/mL
Cmax, Total folates (l-casei activity) [3]: 0.393 ± 0.096 µg/mL
t1/2, 5-Formyl-THF (Strep. faecalis activity) [3]: 9.5 ± 4.6 h
t1/2, 5-Methyl-THF (arithmetic difference) [3]: 6.0 ± 1.9 h
t1/2, Total folates (l-casei activity) [3]: 6.0 ± 1.9 h
tmax, 5-Formyl-THF (Strep. faecalis activity) [3]: 1.22 ± 0.583 h
tmax, 5-Methyl-THF (arithmetic difference) [3]: 2.37 ± 0.483 h
tmax, Total folates (l-casei activity) [3]: 2.33 ± 0.533 h
tolerability [4]: tolerated
